Tests used:
[1] = Lipophilicity determination by HPLC (capacity factor k / log k); assay type: physicochemical; details: RP-HPLC, C18, MeOH 55%/H2O 45%
Description: A Waters Alliance 2695 XE HPLC separation module and a Waters Photodiode Array Detector 2996 (Waters Corp., Milford, MA, USA) were used. A Symmetry C18 5 μm, 4.6 × 250 mm, part number WAT054275 (Waters Corp., Milford, MA, USA) chromatographic column was used. The HPLC separation process was monitored by Empower 2 Chromatography Data Software, Waters 2009 (Waters Corp., Milford, MA, USA). A mixture of MeOH p.a. (55%) and H2O-HPLC–Milli-Q Grade (45%) was used as a mobile phase. The total flow of the column was 1.0 mL/min, injection volume 30 μL, column temperature 45°C, and sample temperature 10°C. The detection wavelength of 210 nm was chosen. The KI methanolic solution was used for the dead time (t D) determination. Retention times (t R) were measured in minutes. The capacity factors k were calculated using the Empower 2 Chromatography Data Software according to formula k = (t R − t D)/t D, where t R is the retention time of the solute, whereas t D denotes the dead time obtained using an unretained analyte. logk, calculated from the capacity factor k, is used as the lipophilicity index converted to logP scale.

[2] = system: Mycobacterium intracellulare; assay: In vitro antimycobacterial evaluation (alamarBlue, MIC); assay type: cell-based; details: Mycobacterium intracellulare, 168 h; MIC/IC90, 7 days incubation, 37°C
Protocol: (§1) Clinical isolates of Mycobacterium avium subsp. paratuberculosis CIT03 and M. intracellulare were grown in Middlebrook broth (MB), supplemented with oleic-albumin-dextrose-catalase supplement (OADC, Becton Dickinson, UK) and mycobactin J (2 μg/mL). Identification of these isolates was performed using biochemical and molecular protocols. At log phase growth, the culture (10 mL) was centrifuged at 15,000 rpm/20 min using a bench top centrifuge (Model CR 4–12, Jouan Inc., UK). Following the removal of the supernatant, the pellet was washed in fresh Middlebrook 7H9GC broth and resuspended in fresh supplemented MB (10 mL). The turbidity was adjusted to match McFarland standard no. 1 (3 × 10^8 cfu) with MB broth. A further 1 : 20 dilution of the culture was then performed in MB broth. The antimicrobial susceptibility of all four mycobacterial species was investigated in a 96-well plate format. In these experiments, sterile deionised water (300 μL) was added to all outer-perimeter wells of the plates to minimize evaporation of the medium in the test wells during incubation. Each evaluated compound (100 μL) was incubated with each of the mycobacterial species (100 μL). Dilutions of each compound were prepared in duplicate. For all synthesized compounds, final concentrations ranged from 1,000 μg/mL to 8 μg/mL. All compounds were prepared in DMSO, and subsequent dilutions were made in supplemented MB. The plates were sealed with parafilm and incubated at 37°C, for 7 days in the case of M. intracellulare and 11 days in the case of M. avium paratuberculosis. Following incubation, a 10% addition of alamarBlue (AbD Serotec) was mixed with each well, and readings at 570 nm and 600 nm were taken, initially for background subtraction and subsequently after 24 h reincubation. […] For noninterfering compounds, a blue colour in the well was interpreted as an absence of growth, and a pink colour was scored as growth. The MIC was initially defined as the lowest concentration which prevented a visual colour change from blue to pink. […] The MIC/IC90 value is routinely and widely used in bacterial assays and is a standard detection limit according to the Clinical and Laboratory Standards Institute (CLSI, http://www.clsi.org/).

[3] = system: Mycobacterium avium subsp. paratuberculosis CIT03; assay: as above; assay type: cell-based; details: Mycobacterium avium, 264 h; MIC/IC90, 11 days incubation, 37°C
Protocol: as §1

[4] = pKa determination by RP-HPLC; assay type: physicochemical; details: from retention factor vs pH of mobile phase, recalculated for water medium
spinach chloroplasts = assay: Photosynthetic electron transport (PET) in spinach chloroplasts (DCPIP photoreduction); assay type: biochemical, Spinacia oleracea L.; details: DMSO 8% v/v
Protocol: Chloroplasts were prepared from spinach (Spinacia oleracea L.) according to Masarovičová and Král'ová [38]. The inhibition of photosynthetic electron transport (PET) in spinach chloroplasts was determined spectrophotometrically (Genesys 6, Thermo Scientific, USA), using an artificial electron acceptor 2,6-dichlorophenol-indophenol (DCIPP) according to Král'ová et al., and the rate of photosynthetic electron transport was monitored as a photoreduction of DCPIP. The measurements were carried out in phosphate buffer (0.02 mol/L, pH 7.2) containing sucrose (0.4 mol/L), MgCl2 (0.005 mol/L), and NaCl (0.015 mol/L). The chlorophyll content was 30 mg/L in these experiments, and the samples were irradiated (~100 W/m^2 with 10 cm distance) with a halogen lamp (250 W) using a 4 cm water filter to prevent warming of the samples (suspension temperature 22°C). The studied compounds were dissolved in DMSO due to their limited water solubility, and the concentration of DMSO was constant (8% (v/v)) in control as well as in amphiphile-treated samples.

[5] = system: human monocytic leukaemia THP-1 cell line; assay: In vitro cytotoxicity assay (WST-1); assay type: cell-based; details: 24 h; for increase in LD50 relative to cytotoxicity: human, 30 μmol/L
Protocol: The human monocytic leukaemia THP-1 cell line was purchased from the European Collection of Cell Cultures (ECACC, Salisbury, UK). […] Cells were passaged at approximately one-week intervals. […] The maximum concentration of DMSO in the assays never exceeded 0.1%. Cytotoxicity of the compounds was determined using a WST-1 assay kit (Roche Diagnostics, Mannheim, Germany), as described previously. The median lethal dose values, LD50, were deduced through the production of a dose-response curve. All data from three independent experiments were evaluated using GraphPad Prism 5.00 software (GraphPad Software, San Diego, CA, USA, http://www.graphpad.com).

CCCCOC(=O)Nc1ccc(C(=O)OCC(O)CNCCOc2ccc(OC)cc2)cc1.Cl (centres unmarked) [Compound 20d, 2-Hydroxy-3-[2-(4-methoxyphenoxy)ethylamino]-propyl 4-(Butoxycarbonylamino)benzoate Hydrochloride]
Log k [1]: 0.4241 | MIC [2]: 121 µM | MIC [3]: 62 µM | pKa [4]: 8.18 | effect on the rate of PET (in words) (spinach chloroplasts): significantly stimulated the rate of PET

CCCCOC(=O)Nc1ccc(C(=O)OCC(O)CNCCOc2c(OC)cccc2OC)cc1.Cl (centres unmarked) [Compound 21d, 2-Hydroxy-3-[2-(2,6-dimethoxyphenoxy)ethylamino]-propyl 4-(Butoxycarbonylamino)benzoate Hydrochloride]
Log k [1]: 0.4177 | MIC [2]: 114 µM | MIC [3]: 59 µM | pKa [4]: 8.58 | effect on the rate of PET (in words) (spinach chloroplasts): significantly stimulated the rate of PET | increase in LD50 relative to cytotoxicity [5]: 61%

CCCCOC(=O)Nc1ccc(C(=O)OCC(O)CNCCOc2ccccc2F)cc1.Cl (centres unmarked) [Compound 22d, 3-[2-(2-Fluorophenoxy)ethylamino]-2-hydroxypropyl 4-(Butoxycarbonylamino)benzoate Hydrochloride]
Log k [1]: 0.4341 | MIC [2]: 124 µM | MIC [3]: 124 µM | pKa [4]: 7.96 | effect on the rate of PET (in words) (spinach chloroplasts): significantly stimulated the rate of PET

CCCCOC(=O)Nc1ccc(C(=O)OCC(O)CNCCOc2ccc(F)cc2)cc1.Cl (centres unmarked) [Compound 23d, 3-[2-(4-Fluorophenoxy)ethylamino]-2-hydroxypropyl 4-(Butoxycarbonylamino)benzoate Hydrochloride]
Log k [1]: 0.4365 | MIC [2]: 258 µM | MIC [3]: 64 µM | pKa [4]: 8.08 | effect on the rate of PET (in words) (spinach chloroplasts): significantly stimulated the rate of PET | increase in LD50 relative to cytotoxicity [5]: 96%

CC[C@@]1(O)C(=O)OCc2c1cc1n(c2=O)Cc2cc3ccccc3nc2-1 [camptothecin, reference compound]
LD50 ([5]; THP-1 cells, highest dose 30 μmol/L): 0.16 ± 0.07 µmol/L

— publication PMC3830801, “Synthesis and Biological Evaluation of 2-Hydroxy-3-[(2-aryloxyethyl)amino]propyl 4-[(Alkoxycarbonyl)amino]benzoates” (The Scientific World Journal, 2013)
